Our source for the IC50 and EC50 values is US12338220B2, “Antiviral pyrazolopiridinone compounds” (Novartis AG, priority 2019, dated 2025).

Experiment [1] addresses CMV-polymerase (Human cytomegalovirus (strain AD169) (HHV-5) (Human herpesvirus 5), UniProt P08546). The experiment is described as follows: biochemical.
Experiment [2] deals with CMV. Put plainly: microbe, parasite or virus in culture. It is filed as cell-based. Conditions: Human betaherpesvirus 5, 72 h, read-out: CMV-Luc Cellular EC50, NN-NHDF cells, MOI 1, 72 hrs.
[3] abbreviates: read-out: CMV-polymerase Biochemical IC50.

Where two headings read alike, the source gives them in different places.

For the compound `Cn1nc(C(=O)NCc2ccc(C#N)cc2)c2c1C(=O)N(CC1(S(=O)(=O)C(C)(C)CN3CC4CC(C3)O4)CC1)CC2` [Example 63, 6-((1-((1-(6-Oxa-3-azabicyclo[3.1.1]heptan-3-yl)-2-methylpropan-2-yl)sulfonyl)cyclopropyl)methyl)-N-(4-cyanobenzyl)-1-methyl-7-oxo-4,5,6,7-tetrahydro-1H-pyrazolo[3,4-c]pyridine-3-carboxamide], the IC50 in experiment [1] (setting [3]) worked out at 6 nM. Also, the EC50 in experiment [2] was found to be 220 nM.
Regarding `N#Cc1ccc(CNC(=O)c2nn(CC3(CO)CC3)c3c2CCN(CC2(S(=O)(=O)C4CC4)CC2)C3=O)cc1` [Example 47, N-(4-Cyanobenzyl)-6-((1-(cyclopropylsulfonyl)cyclopropyl)methyl)-1-((1-(hydroxymethyl)cyclopropyl)methyl)-7-oxo-4,5,6,7-tetrahydro-1H-pyrazolo[3,4-c]pyridine-3-carboxamide], half-maximal inhibition in experiment [1] (CMV-polymerase Biochemical IC50) (IC50) required 2 nM. The EC50 in experiment [2] turned out to be 42 nM.
In the case of `Cn1nc(C(=O)NCc2ccc(C#N)cc2)c2c1C(=O)N(CC1(S(=O)(=O)C3(CO)COC3)CC1)CC2` [Example 173, N-(4-Cyanobenzyl)-6-((1-((3-(hydroxymethyl)oxetan-3-yl)sulfonyl)cyclopropyl)methyl)-1-methyl-7-oxo-4,5,6,7-tetrahydro-1H-pyrazolo[3,4-c]pyridine-3-carboxamide], the IC50 in experiment [1] (setting [3]) came to 3 nM. Further, the EC50 in experiment [2] was found to be 74 nM.
For `COc1ccc(C)nc1NS(=O)(=O)C1(CN2CCc3c(C(=O)NCc4ccc(C#N)cc4)nn(C)c3C2=O)CC1` [Example 160, N-(4-Cyanobenzyl)-6-((1-(N-(3-methoxy-6-methylpyridin-2-yl)sulfamoyl)cyclopropyl)methyl)-1-methyl-7-oxo-4,5,6,7-tetrahydro-1H-pyrazolo[3,4-c]pyridine-3-carboxamide], the IC50 in experiment [1] (setting [3]) is 6 nM. Moreover, the EC50 in experiment [2] turned out to be 118 nM.
Taken in the same sequence, the figures for `Cn1nc(C(=O)NCc2ccc(C#N)cc2)c2c1C(=O)N(CC1(S(=O)(=O)C(C)(C)CNC(=O)C(C)(C)N)CC1)CC2` [Example 77, 6-((1-((1-(2-Amino-2-methylpropanamido)-2-methylpropan-2-yl)sulfonyl)cyclopropyl)methyl)-N-(4-cyanobenzyl)-1-methyl-7-oxo-4,5,6,7-tetrahydro-1H-pyrazolo[3,4-c]pyridine-3-carboxamide] were 12 nM and 115 nM.
On the same counts, the results for `Cn1nc(-c2cn(CC3CCC(F)(F)CC3)nn2)c2c1C(=O)N(CC1(S(=O)(=O)C3CC3)CC1)CC2` [Example 36, 6-((1-(Cyclopropylsulfonyl)cyclopropyl)methyl)-3-(1-((4,4-difluorocyclohexyl)methyl)-1H-1,2,3-triazol-4-yl)-1-methyl-5,6-dihydro-1H-pyrazolo[3,4-c]pyridin-7(4H)-one] are 5 nM and 571 nM.
On the same counts, the results for `CN(C)CCOCC(C)(C)S(=O)(=O)C1(CN2CCc3c(C(=O)NCc4ccc(C#N)cc4)nn(C)c3C2=O)CC1` [Example 104, N-(4-Cyanobenzyl)-6-((1-((1-(2-(dimethylamino)ethoxy)-2-methylpropan-2-yl)sulfonyl)cyclopropyl)methyl)-1-methyl-7-oxo-4,5,6,7-tetrahydro-1H-pyrazolo[3,4-c]pyridine-3-carboxamide] are 3 nM and 21 nM.
On to `Cc1cc(C#N)ccc1CNC(=O)c1nn(C)c2c1CCN(CC1(S(=O)(=O)C3CC3)CC1)C2=O` [Example 12, N-(4-Cyano-2-methylbenzyl)-6-((1-(cyclopropylsulfonyl)cyclopropyl)methyl)-1-methyl-7-oxo-4,5,6,7-tetrahydro-1H-pyrazolo[3,4-c]pyridine-3-carboxamide], for which, in experiment [1] (setting [3]), the IC50 stood at 2 nM. For the same compound, in experiment [2], the EC50 is 87 nM.
